Where two headings read alike, the source gives them in different places.

The experiment deals with blood-sugar. The experiment can be described thus: Blood-sugar lowering activity in starved female rats after oral administration. It is filed as in vivo. The conditions noted are these: for Blood-sugar lowering activity, percent as compared with the controls / change in vivo at 1 mg/kg: 1 mg/kg orally; for change in vivo at 1 mg/kg / change in vivo at 5 mg/kg / change in vivo at 10 mg/kg: Rattus norvegicus, po, read-out: Blood-sugar lowering activity, percent as compared with the controls; for change in vivo at 5 mg/kg: 5 mg/kg orally; for change in vivo at 10 mg/kg: 10 mg/kg orally (footnote *). The method, then: The blood-sugar lowering activity of the test compounds was determined in home-bred female rats with weights of from 180 to 220 grams. Twenty-four hours before starting the test the animals were starved. Before the test the compounds were suspended in 1.5% methyl cellulose and administered to the animals by means of an esophageal tube.
Blood was taken from the retroorbital plexus vein before administration of the test compounds as well as each of 1, 2, 3, and 4 hours after administration. Fifty microliters of each sample were deproteinized with 0.5 ml of 0.33N perchloric acid and centrifuged. The glucose content was determined in the supernatant according to the Hexokinase method by means of an analysis photometer. The statistical evalulation was performed with the t-test according to Student with p=0.05.

Where [1] appears, read: 4 hours, n.s. = not statistically significant.
The mark [2] stands for this setting: 1 hour, n.s. = not statistically significant.
Where [3] appears, read: 2 hours, n.s. = not statistically significant.
Setting [4] is: 3 hours, n.s. = not statistically significant.

`CCCC(NC(=O)Cc1ccc(C(=O)O)cc1)c1ccccc1N1CCCCCC1` (centres unmarked) [M, 4-[(1-(2-Hexahydroazepino-phenyl)-1-butyl)-aminocarbonylmethyl]-benzoic acid]: the “Blood-sugar lowering activity, percent as compared with the controls” value (“Blood-sugar lowering activity, percent” for short) under setting [1] is listed as “n.s”. Moreover, the change in vivo at 1 mg/kg reads like this: under setting [2], -33%; under setting [3], -30%; under setting [4], -21%. Also, the change in vivo at 5 mg/kg is, setting by setting: under setting [2], -46%; under setting [3], -43%; under setting [4], -40%; under setting [1], -36%.
In the case of `CC(NC(=O)Cc1ccc(C(=O)O)cc1)c1ccccc1N1CCCCC1` (single isomer, unassigned; (+)) [AU, (+)-4-[(1-(2-Piperidino-phenyl)-1-ethyl)-aminocarbonylmethyl]-benzoic acid], the change in vivo at 1 mg/kg reads like this: under setting [2], -41%; under setting [3], -22%; under setting [4], -17%; under setting [1], -15%.
Take `CC/C=C(\NC(=O)Cc1ccc(C(=O)O)cc1)c1ccccc1N1CCCC(C)(C)C1` [G, (Z)-4-[(1-(2-(3,3-Dimethyl-piperidino)-phenyl)-1-buten-1-yl)-aminocarbonylmethyl]-benzoic acid]: the change in vivo at 1 mg/kg is -44% under setting [2], -42% under setting [3], -37% under setting [4] and -31% under setting [1].
`O=C(O)CCc1ccc(CC(=O)NC(c2ccccc2)c2ccccc2N2CCCCC2)cc1` (stereo not drawn) [AL, 3-{4-[(α-Phenyl-2-piperidino-benzyl)-aminocarbonylmethyl]-phenyl}-propionic acid]: the change in vivo at 1 mg/kg under setting [2] is -40%, the change in vivo at 1 mg/kg under setting [3] was -31%, the change in vivo at 1 mg/kg under setting [4] was -23% and the change in vivo at 1 mg/kg under setting [1] is -12%. In addition, the change in vivo at 10 mg/kg is, setting by setting: (1 hour) -43%; (2 hours) -41%; under setting [4], -38%; under setting [1], -34%.
As for `CCCC(NC(=O)Cc1ccc(C(=O)O)cc1)c1ccccc1N1CCCC1` (centres unmarked) [H, 4-[(1-(2-Pyrrolidino-phenyl)-1-butyl)-aminocarbonylmethyl]-benzoic acid], the change in vivo at 5 mg/kg was -50% under setting [2], -46% under setting [3], -44% under setting [4] and -45% under setting [1].
As for `CC/C=C(\NC(=O)Cc1ccc(C(=O)OCC)cc1)c1ccccc1N1CCCCC1` [B, (Z)-4-[(1-(2-Piperidino-phenyl)-1-buten-1-yl)-aminocarbonylmethyl]-benzoic acid ethyl ester], the change in vivo at 1 mg/kg by setting is: under setting [2], -39%; under setting [3], -19%; under setting [4], -26%; under setting [1], -30%. Besides, the change in vivo at 5 mg/kg under setting [2] is -44%, the change in vivo at 5 mg/kg under setting [3] was -39%, the change in vivo at 5 mg/kg under setting [4] is -26% and the change in vivo at 5 mg/kg under setting [1] was -35%.
As for `CC1CCCCN1c1ccccc1C(NC(=O)Cc1ccc(C(=O)O)cc1)c1ccccc1` (stereo not drawn) [AQ, 4-[(2-(2-Methyl-piperidino)-α-phenyl-benzyl)-aminocarbonylmethyl]-benzoic acid], the “Blood-sugar lowering activity, percent” value is, setting by setting: under setting [4], “n.s”; under setting [1], “n.s”. In addition, the change in vivo at 1 mg/kg was -16% under setting [2] and -11% under setting [3]. Also, the change in vivo at 5 mg/kg was -32% under setting [2], -31% under setting [3], -24% under setting [4] and -19% under setting [1].
Take `Cc1cccc(C(C)NC(=O)Cc2ccc(C(=O)O)cc2)c1N1CCCCC1` (centres unmarked) [Z, 4-[(1-(3-Methyl-2-piperidino-phenyl)-1-ethyl)-aminocarbonylmethyl]-benzoic acid]: the change in vivo at 5 mg/kg under setting [2] is -22%, the change in vivo at 5 mg/kg under setting [3] is -33%, the change in vivo at 5 mg/kg under setting [4] was -28% and the change in vivo at 5 mg/kg under setting [1] is -26%.
For `CCCC(NC(=O)Cc1ccc(C=CC(=O)O)cc1)c1ccccc1N1CCCCC1` (centres unmarked) [T, 4=[(1-(2-Piperidino-phenyl)-1-butyl)-aminocarbonylmethyl]-cinnamic acid], the change in vivo at 1 mg/kg runs as follows: under setting [2], -42%; under setting [3], -42%; under setting [4], -40%; under setting [1], -32%. For the same compound, the change in vivo at 5 mg/kg under setting [2] is -48%, the change in vivo at 5 mg/kg under setting [3] was -46%, the change in vivo at 5 mg/kg under setting [4] was -42% and the change in vivo at 5 mg/kg under setting [1] is -40%.
In the case of `COCC(NC(=O)Cc1ccc(C(=O)O)cc1)c1ccccc1N1CCCCC1` (centres unmarked) [Compound P, 4-[(2-Methoxy-1-(2-piperidino-phenyl)-1-ethyl)-aminocarbonylmethyl]-benzoic acid], the “Blood-sugar lowering activity, percent” value under setting [4] is given as “n.s” and the “Blood-sugar lowering activity, percent” value under setting [1] is reported as “n.s”. Besides, the change in vivo at 1 mg/kg under setting [2] was -37% and the change in vivo at 1 mg/kg under setting [3] was -19%. For the same compound, the change in vivo at 5 mg/kg reads like this: under setting [2], -49%; under setting [3], -43%; under setting [4], -34%; under setting [1], -22%.
As to `CCCC(NC(=O)Cc1ccc(C(=O)OCC(O)CO)cc1)c1ccccc1N1CCCCC1` (centres unmarked) [U, 4-[(1-(2-Piperidino-phenyl)-1-butyl)-aminocarbonylmethyl]-benzoic acid 2,3-dihydroxy-propyl ester], the change in vivo at 1 mg/kg under setting [2] was -39%, the change in vivo at 1 mg/kg under setting [3] is -35%, the change in vivo at 1 mg/kg under setting [4] is -29% and the change in vivo at 1 mg/kg under setting [1] is -24%. The change in vivo at 5 mg/kg reads like this: under setting [2], -43%; under setting [3], -43%; under setting [4], -49%; under setting [1], -45%.
Turning to `CCCC(NC(=O)Cc1ccc(CC(=O)O)cc1)c1ccccc1N1CCCCC1` (centres unmarked) [S, 4-[(1-(2-Piperidino-phenyl)-1-butyl)-aminocarbonylmethyl]-phenyl-acetic acid], the “Blood-sugar lowering activity, percent” value under setting [1] is “n.s”. The change in vivo at 1 mg/kg under setting [2] was -29%, the change in vivo at 1 mg/kg under setting [3] was -20% and the change in vivo at 1 mg/kg under setting [4] was -10%. Further, the change in vivo at 5 mg/kg reads like this: under setting [2], -49%; under setting [3], -42%; under setting [4], -30%; under setting [1], -17%.
`O=C(Cc1ccc(C(=O)O)cc1)N/C(=C\Cc1ccccc1)c1ccccc1N1CCCCC1` [F, (Z)-4-[(3-Phenyl-1-(2-piperidino-phenyl)-1-propen-1-yl)-aminocarbonylmethyl]-benzoic acid]: the change in vivo at 5 mg/kg reads like this: under setting [2], -43%; under setting [3], -42%; under setting [4], -39%; under setting [1], -32%.
For `CC(NC(=O)Cc1ccc(C(=O)O)cc1)c1cccc(Cl)c1N1CCCCC1` (centres unmarked) [Y, 4-[(1-(3-Chloro-2-piperidino-phenyl)-1-ethyl)-aminocarbonylmethyl]-benzoic acid], the change in vivo at 5 mg/kg was -32% under setting [2], -24% under setting [3], -16% under setting [4] and -18% under setting [1].
As for `CCCC(NC(=O)Cc1ccc(C(=O)O)cc1)c1ccc(OC)cc1N1CCCCC1` (centres unmarked) [W, 4-[(1-(4-Methoxy-2-piperidino-phenyl)-1-butyl)-aminocarbonylmethyl]-benzoic acid], the “Blood-sugar lowering activity, percent” value under setting [1] is reported as “n.s”. The change in vivo at 1 mg/kg by setting is: under setting [2], -36%; under setting [3], -25%; under setting [4], -16%. In addition, the change in vivo at 5 mg/kg by setting is: under setting [2], -46%; under setting [3], -45%; under setting [4], -39%; under setting [1], -37%.
Consider `O=C(Cc1ccc(C(=O)O)cc1)NC(c1ccccc1)c1ccc(Cl)cc1N1CCCCC1` (stereo not drawn) [AM, 4-[(4-Chloro-α-phenyl-2-piperidino-benzyl)-aminocarbonylmethyl]-benzoic acid], for which the “Blood-sugar lowering activity, percent” value runs as follows: under setting [4], “n.s”; under setting [1], “n.s”. For the same compound, the change in vivo at 1 mg/kg is -11% under setting [2] and -13% under setting [3]. Besides, the change in vivo at 5 mg/kg under setting [2] is -34%, the change in vivo at 5 mg/kg under setting [3] is -35%, the change in vivo at 5 mg/kg under setting [4] was -32% and the change in vivo at 5 mg/kg under setting [1] is -29%.
